Read-outs that look alike come from different tables or passages of the source.

Data set [1] relates to rat microsomal cytochrome P450s. Kind of data set: in vitro. As to conditions: microsomes, pH 7.4, inhibition of melatonin O-demethylation (NAS formation).
In data set [2] the test system is mitochondrial cytochrome P450s. Kind of data set: in vitro. The note with it: rat, pH 7.4, inhibition of melatonin O-demethylation (NAS formation).
The subject of data set [3] is rat liver postmitochondrial supernatant. The note with it: cited from earlier work.
The next data set concerns human liver microsomes. As to conditions: cited from earlier work.
The subject of the next data set is NADH oxidase. The note with it: isolated rat liver mitochondria; cited from earlier work.
In data set [4] the test system is rat microsomal cytochrome P450s. The note with it: microsomes.
Data set [5] has as its system mitochondrial cytochrome P450s. As to conditions: mitochondria.
The subject of a further data set is CYP1A2. As to conditions: liver slices and microsomes of treated rats; cited from earlier work.
[6] abbreviates: 6-HMel formation from melatonin.

In general, inhibition refers to the percentage by which the read-out fell short of the control. Low values mean a weak effect, high ones a strong effect. On to `CCN(CC)C(=S)S` [Diethyldihydrocarbamate, diethyldithiocarbamate], for which the inhibition at 60 min, 50 μM in data set [1] was 38%; in data set [2], 74%.

`Cc1nc2c([nH]1)c(=O)n(C)c(=O)n2Cc1ccco1` [Furafylline, furafylline]: the “inhibition of the conversion of melatonin to 6-sulphatoxymelatonin” value in data set [3] was “inhibited markedly”. Further, the inhibition at 60 min, 20 μM in data set [1] worked out at 27%; in data set [2], 63%.

As to `CC(=O)N1CCN(c2ccc(OCC3COC(Cn4ccnc4)(c4ccc(Cl)cc4Cl)O3)cc2)CC1` (stereo not shown) [Ketoconazole, ketoconazole], the “inhibition of melatonin metabolism” value with human liver microsomes is “only weak inhibitors”. Also, the “inhibition of NADH oxidase” value in the data set on NADH oxidase is reported as “dose-dependent inhibition”. The inhibition at 60 min, 5 μM stood at 52% in data set [1] and 49% in data set [2].

For the molecule `COc1ccc2[nH]c([S+]([O-])Cc3ncc(C)c(OC)c3C)nc2c1` (stereo not shown) [Omeprazole, omeprazole], the inhibition at 60 min, 100 μM in data set [1] is 78%; in data set [2], 81%.

Take `C=C[C@H]1C[N@@]2CC[C@H]1C[C@@H]2[C@@H](O)c1ccnc2ccc(OC)cc12` [Quinidine, quinidine]: in the data set on human liver microsomes, the “inhibition of melatonin metabolism” value is given as “only weak inhibitors”. Moreover, the values for the inhibition at 60 min, 5 μM in data set [1] and in data set [2] were 38% and 33%, respectively.

On to `COc1ccc2[nH]cc(CCNC(C)=O)c2c1` [melatonin, N-acetyl-5-methoxytryptamine], for which the entries for the “Km1 (high affinity component)” value in data set [4] (setting [6]), in data set [4] (NAS formation from melatonin) and in data set [5] (NAS formation from melatonin) were 48.33 ± 9.17 µM, 25.86 ± 1.39 µM and 13.96 ± 2.37 µM, respectively. The “Km2 (low affinity component)” value in data set [4] (setting [6]) is 496.8 ± 53.78 µM; in data set [4] (NAS formation from melatonin) it was 953.3 ± 85.95 µM; in data set [5] (setting [6]), 406.6 ± 19.84 µM.

Turning to `Nc1ccc(S(=O)(=O)Nc2ccnn2-c2ccccc2)cc1` [sulfaphenazole], in data set [2], the inhibition at 60 min, 10 μM came to 27%.

Regarding `O=c1cc(-c2ccccc2)oc2c1ccc1ccccc12` [α-naphthoflavone], the “increase in melatonin conversion to 6-sulphatoxymelatonin” value in the data set on CYP1A2 is 3 fold.

Values taken from paper PMC2587488 (Journal of pineal research, 2008).
